# Experimental data from the METLIN SMRT retention time set (Domingo-Almenara et al. 2019).
# Assay: gradient 5% acetonitrile 3 min, to 50% in 2 min, to 85% in 15 min, held 3 min, 100 µL/min
# Conditions: column: Zorbax Extend-C18 2.1 x 50 mm; eluents: water / acetonitrile, 0.1% formic acid
# Procedure, shortened: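 Retention time was recorded from adduct peaks, which were picked computationally and each inspected manually. Pure standards ran in mixtures of ~100 molecules on HPLC coupled to a quadrupole time-of-flight mass spectrometer, in positive and negative ionization mode, through a Zorbax Extend-C18 column (2.1 × 50 mm, 1.8 μm) at 100 μL/min. Eluents were water and acetonitrile, each with 0.1% formic acid.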
row,RP-LC retention time,Compound
1,917 s,O=C(NC1CCCCCC1)c1nnc(-c2ccc(S(=O)(=O)N3CCOCC3)cc2)o1
2,738 s,COc1ccc(-c2nnc(COc3ccc(NC(=O)c4ccoc4)cc3)o2)cc1
3,573 s,COCC(=O)Nc1ccc2nc(N3CCN(Cc4ccccc4OC)CC3)cc(C(=O)O)c2c1
4,769 s,Cc1cc(-n2c(C)nc3ccccc3c2=O)ccc1NC(=O)Cc1cccs1
5,623 s,Cc1noc(C)c1Cc1c(C(=O)NCCn2c(C)cnc2C2CC2)noc1C
6,853 s,COCc1cc2nn(CC(=O)Nc3cc(F)ccc3C)c(=O)n2c(-c2ccccc2)n1
7,820 s,Cc1ccc2c(c1)C(=O)NC1(CCN(C(=O)Cc3ccccc3C)CC1)N2C
8,620 s,CCN(CC)c1cc(CNC(=O)Nc2cc(OC)cc(OC)c2)ccn1
9,632 s,CCCn1nc(CNC(=O)CNC(C)=O)c2ccccc21
10,925 s,Cc1nc(-c2csc(S(=O)(=O)N3CCC(C(=O)Nc4cccc(F)c4)CC3)c2)no1
11,826 s,Cc1nc(-c2cn(C)c3ncccc23)sc1C(=O)NCc1ccc2c(c1)OCO2
12,722 s,O=C(Nc1cccc(Br)c1)C1CCN(c2cc(N3CCCC3)ncn2)CC1
13,943 s,CCOC(=O)c1ccc(Nc2c(-c3ccc(SC)cc3)nc3cnccn23)cc1
14,900 s,COc1ccc(NC(=O)c2cnc3c(c2)c(=O)n(C)c(=O)n3-c2ccc(C)cc2)cc1
15,564 s,CC(C)CN1CCN(C(=O)C2CCCN(c3cnc4nccnc4c3)C2)CC1 (centres undefined)
16,825 s,Cc1cc(N2CCCC2)nc(N2CCN(C(=O)CCC3CCCCC3)CC2)n1
17,1060 s,Cc1c(Cl)cccc1S(=O)(=O)N1CCc2c(c(-c3nnc(-c4ccccc4)o3)nn2C)C1
18,585 s,O=C(O)C1CCN(S(=O)(=O)C2CC2)CC1
19,804 s,Cc1cc(C)cc(C(=O)N2CCC3(CC2)NC(=O)c2ccccc2N3C)c1
20,598 s,CCn1cc(C(=O)N2CCC3(CCC3O)CC2)cn1 (centres undefined)
21,997 s,COc1ccc(-c2noc(Cc3nnc(-c4cc(C)cc(C)c4)o3)n2)cc1OC
22,1080 s,Cc1ccc(Cn2c(N3CCCC(C(=O)Nc4ccc(C)cc4)C3)nc3ccsc3c2=O)cc1 (centres undefined)

row,RP-LC retention time,Compound
1,631 s,O=C(c1ccccn1)N1CCC(n2c(-c3ccoc3)nc3cccnc32)C1 (centres undefined)
2,855 s,O=C(CCn1nnc2cc(-c3noc(Cc4cccc(F)c4)n3)ccc21)N1CCCC1
3,657 s,CCC(C)NC(=O)CCc1c(-c2ccc(Br)cc2)nc2ccccn12 (centres undefined)
4,1150 s,Cc1nc2cc(-c3noc(-c4cc(Cl)ccc4F)n3)ccc2o1
5,644 s,Cc1cc(NCCOCCO)n2nc(-c3ccc(Cl)cc3)c(C)c2n1
6,916 s,Cc1nc(-c2csc(S(=O)(=O)N3CCC(C(=O)Nc4ccc(F)cc4)CC3)c2)no1
7,993 s,CC(C)c1ccc(NC(=O)C2CCN(S(=O)(=O)c3ccc4c(c3)sc(=O)n4C)CC2)cc1
8,894 s,CC(C)c1noc(C2(NC(=O)c3cnccn3)CCCCC2)n1
9,750 s,CCCN1CCn2cc(S(=O)(=O)Nc3ccc(F)cc3)cc2C1=O
10,889 s,Cc1ccc2c(c1)N(Cc1ccc(F)cc1)N=C(C(=O)N1CCCC1)S2(=O)=O
11,663 s,CC(=O)c1ccc(NC(=O)CNS(=O)(=O)c2ccc(C(C)(C)C)cc2)cc1
12,984 s,COc1ccc(-c2noc(C3CC(=O)N(c4ccc(C)c(F)c4)C3)n2)cc1OC (centres undefined)
13,1060 s,CCc1cc(C(=O)Nc2ccc(C)cc2)nc2ccnn12
14,627 s,O=C(NCc1ccc(F)cc1F)C1CCN(c2cc(N3CCOCC3)ncn2)CC1
15,809 s,O=c1n(CCc2ccccc2)nc2ccc(S(=O)(=O)N3CCOCC3)cn12
16,860 s,Cc1cc(C(F)F)n2nc(C(=O)Nc3ccc(C)c(C)c3)nc2n1
17,924 s,Cc1ccc(S(=O)(=O)CC(=O)Nc2nc(-c3ccc4c(c3)OCO4)cs2)cc1
18,835 s,CCN1c2cc(F)ccc2C(=O)NC12CCN(C(=O)c1ccccc1C)CC2
19,651 s,O=C(O)CCC1(c2ccccc2)NC(=O)NC1=O (centres undefined)
20,730 s,CCc1ccc(NC(=O)Nc2ccc(NC(=O)N3CCCC(C(=O)NC)C3)cc2)cc1 (centres undefined)
21,636 s,CC1(C)CC(=O)c2cn(-c3ccc(F)cc3)c(=O)c(C(=O)N3CCN(c4ccccn4)CC3)c2C1
22,793 s,Cc1nn(Cc2nc(-c3ccc(NC(=O)C4CCCO4)cc3)oc2C)c(C)c1C (centres undefined)

row,RP-LC retention time,Compound
1,1190 s,Cc1ccc(NC(=O)c2nc(C(C)C)oc2C)c(C)c1
2,896 s,Cc1cc(NC(=O)Nc2cccc3ccccc23)no1
3,944 s,CCN(C(=O)Cn1nc(C(=O)N2CCCCC2)c2ccccc21)c1ccccc1
4,707 s,CC(C)Cn1nc2c(S(=O)(=O)N3CCOCC3)cccn2c1=O
5,866 s,O=C(Cn1c(=O)oc2ccccc21)Nc1nc(-c2nc3ccccc3s2)cs1
6,595 s,Cc1cnc(C2CN(C(=O)c3ccsc3)C2)n1CC1CC1
7,831 s,CS(=O)(=O)N1CCC(OC2CCN(C(=O)Nc3cccc(Cl)c3)CC2)CC1
8,1140 s,CC(C)n1c(=O)oc2cc(-c3noc(CCc4ccccc4)n3)ccc21
9,1120 s,COc1ccc(CNC(=O)c2cc3c(-c4cccs4)nn(-c4ccccc4)c3n2C)cc1
10,735 s,O=C([C@@H]1C[C@H](F)CN1S(=O)(=O)c1ccccc1)N1CCCCC1
11,682 s,Cc1ccc(N2CCN(C(=O)c3cn4cccc(C)c4n3)CC2)cc1
12,660 s,Cn1cnc(S(=O)(=O)N2CCC(C(=O)NCc3ccccc3)CC2)c1
13,637 s,O=C(NC1CCCC1)c1cccnc1N1CCOCC1
14,919 s,CCc1ccc(NC(=O)NCCc2cn(CC(C)C)c3ncccc23)cc1
15,715 s,O=C(NCc1ccc2c(c1)OCO2)C1CCN(c2cc(N3CCCCC3)ncn2)CC1
16,610 s,Cc1ccc(CNC(=O)Nc2cc3c(cc2N2CCCCC2)n(C)c(=O)n3C)cc1
17,858 s,O=C(CCCn1c(=O)c2cccn2c2ccc(F)cc21)NCCc1c[nH]c2ccccc12
18,655 s,O=C(NCc1ccc2c(c1)OCO2)C1CCCN(C(=O)c2cc(-c3ccccn3)n[nH]2)C1 (centres undefined)
19,666 s,CS(=O)(=O)N1CCOc2ccc(CCC(=O)NCC3CCCO3)cc2C1 (centres undefined)
20,1060 s,O=C1CCCc2c1cc(C(=O)Nc1ccc(Cl)cc1)c(=O)n2-c1ccc(F)cc1
21,640 s,Cc1ccsc1C(=O)NCC1CCCCC(=O)N1 (centres undefined)
22,811 s,CCC(CC)C(=O)N1CCCN(C2=NS(=O)(=O)C(c3ccc(F)cc3)=C2C)CC1

row,RP-LC retention time,Compound
1,992 s,Cc1ccc2oc(=O)n(Cc3noc(C(=O)NCC(C)c4ccccc4)n3)c2c1 (centres undefined)
2,700 s,CCOc1cc(CNc2ccc3[nH]c(=O)[nH]c3c2)cc(Cl)c1OCC
3,648 s,Cc1cc(Cl)ccc1NC(=O)N1CCC(c2nc3ccncc3n2C(C)C)C1 (centres undefined)
4,716 s,Cc1ccc(NC(=O)N2CC(c3nc(C)no3)C3(CCOCC3)C2)cc1 (centres undefined)
5,915 s,O=C(c1nnn(Cc2ccc(Cl)cc2)c1-n1cccc1)N1CCCC1
6,778 s,CC1(C(=O)NCc2ccccc2)CN(S(C)(=O)=O)CC(=O)N1Cc1ccccc1Cl (centres undefined)
7,828 s,COc1cccc(N2CCN(C(=O)Cn3ccc4c(c(C)nn4-c4ccccc4)c3=O)CC2)c1
8,608 s,c1ccc(-c2nc(CC3CCNC3)no2)cc1 (centres undefined)
9,786 s,O=C(NC1CC1)[C@@H]1C[C@H](Oc2ccccc2)CN1C(=O)Cn1c(=O)oc2ccccc21
10,945 s,CCOc1ccc(-c2noc(Cn3c(=O)n(-c4ccccc4F)c(=O)c4sccc43)n2)cc1OC
11,713 s,c1ccc(CCc2nc3nccc(-c4ccncc4)n3n2)cc1
12,876 s,O=C(CCC1CCCC1)NCCC1CCN(C(=O)Nc2ccccc2)CC1
13,1250 s,CCOC(=O)N1CCN(c2cc(-c3nc(-c4cccc(OC)c4OC)no3)c3ccccc3n2)CC1
14,596 s,COc1ccc(Cc2nnc(N)o2)cc1
15,707 s,CCOc1cc(=O)n2c(c1C(=O)Nc1ccc(C(=O)OC)cc1)CCCC2
16,762 s,CSc1ccccc1C(=O)N(CCc1ccccc1)Cc1ccccn1
17,945 s,CCCc1cc(C2CCCN2C(=O)Nc2cccc(C)c2)no1 (centres undefined)
18,898 s,O=C(Cn1c(=O)oc2ccc(Cl)cc21)N1CCc2ccccc21
19,909 s,COc1ccc(Cl)cc1C(=O)N1CCN(c2ccc(-c3nc(C)cs3)cn2)CC1
20,646 s,Cn1cc2c(N3CCCC3)nc(C(=O)NCc3ccccc3C(F)(F)F)nc2n1
21,1100 s,O=c1c2ccccc2n(Cc2nc(-c3ccc(C(F)(F)F)cc3)no2)c(=O)n1CC1CCCO1 (centres undefined)
22,701 s,O=C(Nc1nnc(C2CC(=O)N(c3ccc(F)cc3)C2)o1)c1ccccc1F (centres undefined)

row,Compound,RP-LC retention time
1,Cc1cc(OCC(=O)N2CCC3(O)CCCCC3C2)c2c3c(c(=O)oc2c1)CCC3 (centres undefined),803 s
